The values below come from patent US20230373985A1 (Origenis Gmbh, priority 2020, published 2023).

Experiment [1] concerns the target T1, wt human JAK1, catalytic site (Homo sapiens, UniProt P23458).
T1 construct: wt human JAK1, catalytic site; purchased ThermoFisher
As to the kind of experiment: HTRF KinEASE assay, JAK1. It counts as biochemical. The note with it: 2.5 μM ATP; read-out: IC50, Activity Toward JAK1. The method, boiled down: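 Two-step HTRF KinEASE assay: compound, kinase/biotinylated TK substrate and ATP were incubated at least 30 min at room temperature. Antibody plus streptavidin-XL665 was then added and plates were read after 60 min. Inhibition was derived from emission ratios according to the kit protocol.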
For orientation: TR-FRET usually uses a lanthanide donor and a delayed reading to cut background.

Experiment [2] has as its target T2, wt human TYK2, catalytic site (Homo sapiens, UniProt P29597).
T2 construct: wt human TYK2, catalytic site; purchased SignalChem
T2 sequence (P29597 897-1176 limits assumed): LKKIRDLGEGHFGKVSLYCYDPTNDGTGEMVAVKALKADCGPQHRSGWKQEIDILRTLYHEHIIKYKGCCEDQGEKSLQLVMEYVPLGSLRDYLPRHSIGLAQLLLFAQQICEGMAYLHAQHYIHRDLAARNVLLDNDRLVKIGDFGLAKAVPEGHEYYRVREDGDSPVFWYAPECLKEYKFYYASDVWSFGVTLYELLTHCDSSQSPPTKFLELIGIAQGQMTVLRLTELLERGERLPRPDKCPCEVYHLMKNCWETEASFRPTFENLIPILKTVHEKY
As to the kind of experiment: HTRF KinEASE assay, TYK2. It counts as biochemical. Particulars: 1 μM ATP; read-out: IC50, Activity Toward TYK2. The method, boiled down: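 HTRF KinEASE-TK readout with 1 μM biotinylated TK substrate in 1× kinase buffer, ≥30 min at room temperature, then antibody/streptavidin-XL665 detection for 60 min. TYK2 at 2 nM with 1 μM ATP; JAK2 at 1 nM with 100 μM ATP. Analysis uses emission ratios.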

The IC50 is the concentration at which inhibition is half-maximal.

T1 sequence (P23458 875-1153 limits assumed): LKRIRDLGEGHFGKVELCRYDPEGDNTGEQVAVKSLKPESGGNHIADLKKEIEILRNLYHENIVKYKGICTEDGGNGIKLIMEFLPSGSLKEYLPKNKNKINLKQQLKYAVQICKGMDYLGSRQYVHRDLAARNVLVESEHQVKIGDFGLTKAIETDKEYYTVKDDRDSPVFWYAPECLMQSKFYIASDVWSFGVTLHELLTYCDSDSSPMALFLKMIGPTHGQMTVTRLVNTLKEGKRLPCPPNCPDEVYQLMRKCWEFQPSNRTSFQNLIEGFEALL

Consider `NC(=O)c1nn(-c2c(Cl)cccc2Cl)cc1Nc1ccc(C(=O)N2CC(F)(F)C(F)(F)C2)cc1` [compound 254, 1-(2,6-dichlorophenyl)-4-((4-(3,3,4,4-tetrafluoropyrrolidine-1-carbonyl)phenyl)amino)-1H-pyrazole-3-carboxamide], for which the IC50 was 10 to 100 nM in experiment [1] and below 10 nM in experiment [2].

`Cn1cc(Nc2cn(-c3c(Cl)cccc3Cl)nc2C(N)=O)nn1` [compound 380, 1-(2,6-dichlorophenyl)-4-((1-methyl-1H-1,2,3-triazol-4-yl)amino)-1H-pyrazole-3-carboxamide]: the IC50 in experiment [1] and in experiment [2] was 100 to 1000 nM in each case.

Consider `CCc1ccn(-c2ccc(Nc3cn(-c4c(Cl)cccc4Cl)nc3C(N)=O)cc2)n1` [compound 240, 1-(2,6-dichlorophenyl)-4-((4-(3-ethyl-1H-pyrazol-1-yl)phenyl)amino)-1H-pyrazole-3-carboxamide], for which the half-maximal inhibitory concentration (IC50) in experiment [1] and in experiment [2] was 100 to 1000 nM each time.

As for `N#CC1CN(C(=O)c2ccc(Nc3cn(-c4c(Cl)cccc4Cl)nc3C(N)=O)nc2)C1` [compound 444, 4-((5-(3-cyanoazetidine-1-carbonyl)pyridin-2-yl)amino)-1-(2,6-dichlorophenyl)-1H-pyrazole-3-carboxamide], the IC50 in experiment [1] and in experiment [2] was 10 to 100 nM throughout.

Take `Cc1cnnn1-c1ccc(Nc2nn(-c3c(Cl)cccc3Cl)nc2C(N)=O)nc1` [compound 141, 2-(2,6-dichlorophenyl)-5-((5-(5-methyl-1H-1,2,3-triazol-1-yl)pyridin-2-yl)amino)-2H-1,2,3-triazole-4-carboxamide]: the IC50 in experiment [1] and in experiment [2] was 10 to 100 nM in each case.

For the molecule `Cn1nnnc1-c1ccc(Nc2cn(-c3c(Cl)cccc3Cl)nc2C(N)=O)nc1` [compound 445, 1-(2,6-dichlorophenyl)-4-((5-(1-methyl-1H-tetrazol-5-yl)pyridin-2-yl)amino)-1H-pyrazole-3-carboxamide], the IC50 in experiment [1] and in experiment [2] was 10 to 100 nM in each case.

As for `N#Cc1cc(Cl)c(-n2nc(Nc3ccc(C(=O)N4CCC(F)C4)cc3)c(C(N)=O)n2)c(Cl)c1` (stereo in doubt) [compound 148, (R)-2-(2,6-dichloro-4-cyanophenyl)-5-((4-(3-fluoropyrrolidine-1-carbonyl)phenyl)amino)-2H-1,2,3-triazole-4-carboxamide], the results for the IC50 in experiment [1] and in experiment [2] were 100 to 1000 nM and 10 to 100 nM, respectively.

Consider `Cn1c(-c2ccc(Nc3cn(-c4c(Cl)cccc4Cl)nc3C(N)=O)cc2)nnc1C(F)(F)F` [compound 242, 1-(2,6-dichlorophenyl)-4-((4-(4-methyl-5-(trifluoromethyl)-4H-1,2,4-triazol-3-yl)phenyl)amino)-1H-pyrazole-3-carboxamide], for which the IC50 in experiment [1] and in experiment [2] was 10 to 100 nM throughout.

`CN(C)[C@H]1CCN(C(=O)c2ccc(Nc3cn(-c4c(Cl)cccc4Cl)nc3C(N)=O)nc2)C1` [compound 366, (S)-1-(2,6-dichlorophenyl)-4-((5-(3-(dimethylamino)pyrrolidine-1-carbonyl)pyridin-2-yl)amino)-1H-pyrazole-3-carboxamide]: the IC50 in experiment [1] lay in the range of 100 to 1000 nM; in experiment [2], 10 to 100 nM.

Consider `Cc1cccc2ncc(-c3ccc(Nc4cn(-c5c(Cl)cccc5Cl)nc4C(N)=O)cn3)n12` [compound 473, 1-(2,6-dichlorophenyl)-4-((6-(5-methylimidazo[1,2-a]pyridin-3-yl)pyridin-3-yl)amino)-1H-pyrazole-3-carboxamide], for which the 50% inhibitory concentration (IC50) in experiment [1] and in experiment [2] was 10 to 100 nM throughout.

With `N#CC1CN(C(=O)c2ccc(Nc3nn(-c4c(Cl)cccc4Cl)nc3C(N)=O)nc2)C1` [compound 153, 5-((5-(3-cyanoazetidine-1-carbonyl)pyridin-2-yl)amino)-2-(2,6-dichlorophenyl)-2H-1,2,3-triazole-4-carboxamide], the IC50 in experiment [1] and in experiment [2] was 10 to 100 nM in each case.

On to `NC(=O)c1nn(-c2c(Cl)cccc2Cl)nc1Nc1ccc(C(=O)N2CCSCC2)cc1` [compound 170, 2-(2,6-dichlorophenyl)-5-((4-(thiomorpholine-4-carbonyl)phenyl)amino)-2H-1,2,3-triazole-4-carboxamide], for which the IC50 in experiment [1] and in experiment [2] was below 10 nM in each case.

Take `NC(=O)c1nn(-c2c(Cl)cccc2Cl)cc1Nc1ccc(C(=O)N2CC[C@H](F)C2)cn1` [compound 367, (S)-1-(2,6-dichlorophenyl)-4-((5-(3-fluoropyrrolidine-1-carbonyl)pyridin-2-yl)amino)-1H-pyrazole-3-carboxamide]: the IC50 in experiment [1] lay in the range of 100 to 1000 nM; in experiment [2] it was 10 to 100 nM.

In the case of `COCc1ncnn1-c1ccc(Nc2cn(-c3c(Cl)cccc3Cl)nc2C(N)=O)cc1` [compound 300, 1-(2,6-dichlorophenyl)-4-((4-(5-(methoxymethyl)-1H-1,2,4-triazol-1-yl)phenyl)amino)-1H-pyrazole-3-carboxamide], the IC50 was 100 to 1000 nM in experiment [1] and 10 to 100 nM in experiment [2].

Regarding `Cc1cncc2nnc(-c3ccc(Nc4nn(-c5c(Cl)cccc5Cl)nc4C(N)=O)cn3)n12` [compound 161, 2-(2,6-dichlorophenyl)-5-((6-(5-methyl-[1,2,4]triazolo[4,3-a]pyrazin-3-yl)pyridin-3-yl)amino)-2H-1,2,3-triazole-4-carboxamide], the IC50 in experiment [1] and in experiment [2] was 10 to 100 nM each time.

Regarding `CCn1cc(C(F)(F)F)nc1-c1ccc(Nc2cn(-c3c(Cl)cccc3Cl)nc2C(N)=O)cc1` [compound 293, 1-(2,6-dichlorophenyl)-4-((4-(1-ethyl-4-(trifluoromethyl)-1H-imidazol-2-yl)phenyl)amino)-1H-pyrazole-3-carboxamide], the IC50 in experiment [1] and in experiment [2] was 10 to 100 nM each time.

As for `NC(=O)c1nn(-c2c(Cl)cccc2Cl)cc1Nc1ccc(CC(=O)N2CC(F)C2)nc1` [compound 441, 1-(2,6-dichlorophenyl)-4-((6-(2-(3-fluoroazetidin-1-yl)-2-oxoethyl)pyridin-3-yl)amino)-1H-pyrazole-3-carboxamide], the IC50 in experiment [1] and in experiment [2] was 100 to 1000 nM in each case.

On to `NC(=O)c1nn(-c2c(Cl)cccc2Cl)cc1Nc1ccc(-c2nc(C(F)(F)F)cn2CCO)nc1` [compound 373, 1-(2,6-dichlorophenyl)-4-((6-(1-(2-hydroxyethyl)-4-(trifluoromethyl)-1H-imidazol-2-yl)pyridin-3-yl)amino)-1H-pyrazole-3-carboxamide], for which the results for the IC50 in experiment [1] and in experiment [2] were 100 to 1000 nM and 10 to 100 nM, respectively.

Regarding `Cc1cc2nnc(-c3ccc(Nc4cn(-c5c(Cl)cccc5Cl)nc4C(N)=O)cn3)n2c(C)n1` [compound 470, 1-(2,6-dichlorophenyl)-4-((6-(5,7-dimethyl-[1,2,4]triazolo[4,3-c]pyrimidin-3-yl)pyridin-3-yl)amino)-1H-pyrazole-3-carboxamide], the IC50 in experiment [1] and in experiment [2] was 100 to 1000 nM each time.

As to `NC(=O)c1nn(-c2c(Cl)cccc2Cl)cc1Nc1ccc(N2CCCCC2=O)nc1` [compound 384, 1-(2,6-dichlorophenyl)-4-((6-(2-oxopiperidin-1-yl)pyridin-3-yl)amino)-1H-pyrazole-3-carboxamide], the IC50 in experiment [1] and in experiment [2] was 100 to 1000 nM throughout.

With `Cc1cnn(-c2ccc(Nc3cn(-c4c(Cl)cccc4Cl)nc3C(N)=O)cc2)c1C` [compound 218, 1-(2,6-dichlorophenyl)-4-((4-(4,5-dimethyl-1H-pyrazol-1-yl)phenyl)amino)-1H-pyrazole-3-carboxamide], the IC50 in experiment [1] and in experiment [2] was 100 to 1000 nM throughout.

Take `NC(=O)c1nn(-c2c(Cl)cccc2Cl)nc1Nc1ccc(CC(=O)N2CCOCC2)nc1` [compound 151, 2-(2,6-dichlorophenyl)-5-((6-(2-morpholino-2-oxoethyl)pyridin-3-yl)amino)-2H-1,2,3-triazole-4-carboxamide]: the IC50 lay in the range of 10 to 100 nM in experiment [1] and 100 to 1000 nM in experiment [2].

Take `CCS(=O)(=O)Nc1ccc(Nc2cn(-c3c(Cl)cccc3Cl)nc2C(N)=O)cc1` [compound 270, 1-(2,6-dichlorophenyl)-4-((4-(ethylsulfonamido)phenyl)amino)-1H-pyrazole-3-carboxamide]: the IC50 in experiment [1] and in experiment [2] was 10 to 100 nM each time.

Consider `CCc1ncnn1-c1ccc(Nc2cn(-c3c(Cl)cccc3Cl)nc2C(N)=O)cc1` [compound 291, 1-(2,6-dichlorophenyl)-4-((4-(5-ethyl-1H-1,2,4-triazol-1-yl)phenyl)amino)-1H-pyrazole-3-carboxamide], for which the IC50 in experiment [1] is below 10 nM; in experiment [2], 10 to 100 nM.

Turning to `NC(=O)c1nn(-c2c(Cl)cccc2Cl)cc1Nc1ccc(C(=O)N2CC[C@@H](F)C2)cn1` [compound 443, (R)-1-(2,6-dichlorophenyl)-4-((5-(3-fluoropyrrolidine-1-carbonyl)pyridin-2-yl)amino)-1H-pyrazole-3-carboxamide], the IC50 in experiment [1] and in experiment [2] was 10 to 100 nM in each case.

Take `CN(C)[C@@H]1CCN(C(=O)c2ccc(Nc3nn(-c4c(Cl)cccc4Cl)nc3C(N)=O)nc2)C1` [compound 133, (R)-2-(2,6-dichlorophenyl)-5-((5-(3-(dimethylamino)pyrrolidine-1-carbonyl)pyridin-2-yl)amino)-2H-1,2,3-triazole-4-carboxamide]: the IC50 in experiment [1] lay in the range of 10 to 100 nM; in experiment [2], 100 to 1000 nM.
